Results: DBAASP
Converted amounts (≈) assume the structure as drawn.

Tests used:
Assay in all cases: ≥ marks a high value that may be exact or a test limit, other limits are often not marked, values filed in µg/mL are converted to µM
Escherichia coli TOP 10 = test system: Escherichia coli TOP 10
[1] = test system: Escherichia coli ATCC 25922
Escherichia coli D21 = test system: Escherichia coli D21
[2] = test system: Staphylococcus aureus ATCC 6538
[3] = test system: Klebsiella pneumoniae ATCC 10031
[4] = test system: Salmonella enterica subsp. enterica serovar Typhimurium ATCC 14028
[5] = test system: Shigella dysenteriae ATCC 9752
[6] = test system: Staphylococcus aureus ATCC 6538P
[7] = test system: Staphylococcus epidermidis ATCC 12228
[8] = test system: Bacillus subtilis ATCC 6633
[9] = test system: Pseudomonas aeruginosa ATCC 27853
[10] = test system: Micrococcus luteus ATCC 10240
[11] = test system: Staphylococcus aureus TK784
[12] = test system: Streptococcus mutans ATCC 25175
[13] = test system: Staphylococcus aureus ATCC 12600
[14] = test system: Pseudomonas aeruginosa KCTC 1637
[15] = test system: Candida albicans TIMM 1768
[16] = test system: Escherichia coli KCTC 1682
[17] = test system: Salmonella typhimurium KCTC 1926
[18] = test system: Bacillus subtilis KCTC 1918
[19] = test system: Staphylococcus aureus KCTC 1621
[20] = test system: Trichosporon beigelii KCTC 7707
Staphylococcus aureus = test system: Staphylococcus aureus
Listeria innocua = test system: Listeria innocua
[21] = test system: Staphylococcus epidermidis
Pasteurella multocida = test system: Pasteurella multocida
Escherichia coli = test system: Escherichia coli
Leuconostoc lactis = test system: Leuconostoc lactis
[22] = test system: Batrachochytrium dendrobatidis
Micrococcus luteus = test system: Micrococcus luteus
Bacillus cereus = test system: Bacillus cereus
Streptococcus uberis = test system: Streptococcus uberis

Row | Structure (SMILES) | MIC [1] | MIC [3] | MIC [4] | MIC [5] | MIC [6] | MIC [7] | MIC [8] | MIC [9] | MIC [10] | MIC [11] | also measured
1 | CC[C@H](C)[C@H](NC(=O)[C@H](CO)NC(=O)[C@H](CCCN=C(N)N)NC(=O)[C@@H](NC(=O)[C@H](CS)NC(=O)[C@H](CO)NC(=O)[C@@H]1CCCN1C(=O)[C@H](CC(C)C)NC(=O)[C@H](Cc1ccccc1)NC(=O)[C@H](CCCN=C(N)N)NC(=O)[C@@H](N)CCCCN)C(C)C)C(=O)N[C@@H](CCC(N)=O)C(=O)N[C@@H](CC(N)=O)C(=O)N[C@@H](CC(C)C)C(=O)N[C@@H](CC(=O)O)C(=O)N[C@@H](CC(=O)O)C(=O)N[C@@H](C)C(=O)N[C@@H](CC(C)C)C(=O)N1CCC[C@H]1C(=O)N[C@H](C(=O)N1CCC[C@H]1C(=O)N[C@@H](CCC(=O)O)C(=O)N[C@@H](CCC(=O)O)C(=O)N[C@@H](Cc1ccccc1)C(N)=O)[C@@H](C)O [KRFLPSCVRSIQNLDDALPTPEEF] | – | – | – | – | – | – | – | – | – | – | MIC (Escherichia coli TOP 10): ≥ 36 µM
2 | CC[C@H](C)[C@H](N)C(=O)N[C@@H](CCCCN)C(=O)N[C@@H](C)C(=O)N[C@@H](CC(C)C)C(=O)N[C@@H](CC(C)C)C(=O)N[C@@H](C)C(=O)N[C@@H](CC(C)C)C(=O)N1CCC[C@H]1C(=O)N[C@@H](CCCCN)C(=O)N[C@@H](CC(C)C)C(=O)N[C@@H](C)C(=O)N[C@@H](CCCCN)C(=O)N[C@@H](CCCCN)C(=O)N[C@H](C(=O)N[C@@H](C)C(=O)N[C@@H](CCCCN)C(=O)N[C@@H](CCCCN)C(=O)N[C@@H](Cc1ccccc1)C(=O)N[C@@H](CC(C)C)C(=O)N[C@@H](CCCCN)C(N)=O)[C@@H](C)CC [IKALLALPKLAKKIAKKFLK] | – | – | – | – | – | – | – | – | – | – | MIC (Escherichia coli TOP 10): 22.4 µM (≈ 50 µg/mL)
3 | CC[C@H](C)[C@H](NC(=O)[C@H](CCCCN)NC(=O)[C@H](CCCN=C(N)N)NC(=O)[C@@H](NC(=O)[C@H](CC(C)C)NC(=O)[C@H](CCC(N)=O)NC(=O)[C@@H](NC(=O)[C@H](Cc1ccc(O)cc1)NC(=O)[C@H](CCC(N)=O)NC(=O)[C@@H]1CCCN1C(=O)[C@@H](NC(=O)[C@H](CC(C)C)NC(=O)[C@@H](NC(=O)[C@H](Cc1c[nH]c2ccccc12)NC(=O)[C@H](CC(C)C)NC(=O)[C@H](CO)NC(=O)[C@@H]1CCCN1C(=O)[C@H](Cc1cnc[nH]1)NC(=O)[C@@H](N)Cc1ccccc1)C(C)C)[C@@H](C)CC)[C@@H](C)CC)[C@@H](C)CC)C(=O)N[C@@H](CC(C)C)C(=O)N[C@@H](CCCCN)C(=O)N[C@@H](CO)C(=O)NCC(=O)O [FHPSLWVLIPQYIQLIRKILKSG] | > 50 µM | – | – | – | – | – | – | – | – | – | MIC (Escherichia coli D21): ≥ 50 µM; MIC [2]: 35.4 µM (≈ 97.2 µg/mL)
4 | CC(C)C[C@H](NC(=O)[C@H](Cc1c[nH]c2ccccc12)NC(=O)[C@H](CCCCN)NC(=O)[C@H](CC(C)C)NC(=O)[C@H](CC(C)C)NC(=O)[C@H](CCCCN)NC(=O)[C@H](CCCCN)NC(=O)[C@H](CC(C)C)NC(=O)[C@@H](N)CC(C)C)C(=O)N[C@@H](CCCCN)C(=O)N[C@@H](CCCCN)C(N)=O [LLKKLLKWLKK] | 2.84 µM (≈ 4 µg/mL) | 2.84 µM (≈ 4 µg/mL) | 2.84 µM (≈ 4 µg/mL) | 2.84 µM (≈ 4 µg/mL) | 1.42 µM (≈ 2 µg/mL) | 2.84 µM (≈ 4 µg/mL) | 2.84 µM (≈ 4 µg/mL) | 5.67 µM (≈ 7.99 µg/mL) | 2.84 µM (≈ 4 µg/mL) | 11.3 µM (≈ 16 µg/mL) | –
5 | CC(C)C[C@H](NC(=O)[C@H](Cc1c[nH]c2ccccc12)NC(=O)[C@H](CCCCN)NC(=O)[C@H](CCCCN)NC(=O)[C@H](CC(C)C)NC(=O)[C@H](Cc1c[nH]c2ccccc12)NC(=O)[C@H](CCCCN)NC(=O)[C@@H](N)CCCCN)C(=O)N[C@@H](CCCCN)C(N)=O [KKWLKKWLK] | 31.8 µM (≈ 40 µg/mL) | ≥ 63.6 µM | > 63.6 µM | ≥ 63.6 µM | 31.8 µM (≈ 40 µg/mL) | > 63.6 µM | ≥ 63.6 µM | 63.6 µM (≈ 79.9 µg/mL) | ≥ 63.6 µM | ≥ 63.6 µM | –
6 | CC[C@H](C)[C@H](NC(=O)[C@H](C)NC(=O)CNC(=O)[C@H](Cc1ccccc1)NC(=O)[C@H](CC(C)C)NC(=O)CN)C(=O)N[C@@H](C)C(=O)NCC(=O)N[C@@H](Cc1ccccc1)C(=O)N[C@H](C(=O)N[C@@H](CCCCN)C(=O)NCC(=O)NCC(=O)N[C@@H](Cc1c[nH]c2ccccc12)C(=O)N[C@@H](CCC(N)=O)C(=O)NCC(=O)N[C@@H](CCSC)C(=O)N[C@H](C(=O)N[C@@H](CCCCN)C(=O)NCC(N)=O)C(C)C)[C@@H](C)CC [GLFGAIAGFIKGGWQGMVKG] | 15.7 µM (≈ 31.3 µg/mL) | – | – | – | – | – | – | > 62.7 µM | – | – | MIC [12]: 11.1 µM (≈ 22.1 µg/mL); MIC [13]: 15.7 µM (≈ 31.3 µg/mL)
7 | CC(C)C[C@H](NC(=O)[C@H](CCCCN)NC(=O)[C@H](CCCCN)NC(=O)[C@H](Cc1c[nH]c2ccccc12)NC(=O)[C@@H](N)CCCCN)C(=O)N[C@@H](CC(C)C)C(=O)N[C@@H](CCCCN)C(=O)N[C@@H](CCCCN)C(=O)N1CCC[C@H]1C(=O)N[C@@H](CC(C)C)C(=O)N[C@@H](CC(C)C)C(=O)N[C@@H](CCCCN)C(=O)N[C@@H](CCCCN)C(N)=O [KWKKLLKKPLLKK] | – | – | – | – | – | – | – | – | – | – | MIC [14]: 12.5 µM (≈ 20.6 µg/mL); MIC [15]: 25 µM (≈ 41.3 µg/mL); MIC [16]: 12.5 µM (≈ 20.6 µg/mL); MIC [17]: 1.56 µM (≈ 2.57 µg/mL); MIC [18]: 6.25 µM (≈ 10.3 µg/mL); MIC [19]: 12.5 µM (≈ 20.6 µg/mL); MIC [20]: 25 µM (≈ 41.3 µg/mL)
8 | CC(C)C[C@H](NC(=O)[C@H](Cc1c[nH]c2ccccc12)NC(=O)[C@H](CCCCN)NC(=O)[C@H](CCCCN)NC(=O)[C@H](CC(C)C)NC(=O)[C@H](Cc1c[nH]c2ccccc12)NC(=O)[C@@H](N)CCCCN)C(N)=O [KWLKKWL] | > 79.9 µM | ≥ 79.9 µM | > 79.9 µM | ≥ 79.9 µM | ≥ 79.9 µM | > 79.9 µM | ≥ 79.9 µM | > 79.9 µM | ≥ 79.9 µM | ≥ 79.9 µM | –
9 | CC[C@H](C)[C@H](NC(=O)[C@H](CO)NC(=O)CNC(=O)[C@H](CC(C)C)NC(=O)[C@@H](NC(=O)CNC(=O)[C@H](Cc1ccccc1)NC(=O)[C@H](CC(C)C)NC(=O)CN)C(C)C)C(=O)N[C@@H](C)C(=O)N[C@@H](CCCCN)C(=O)N[C@@H](Cc1cnc[nH]1)C(=O)N[C@H](C(=O)N[C@@H](CC(C)C)C(=O)N1CCC[C@H]1C(=O)N[C@@H](Cc1cnc[nH]1)C(=O)N[C@H](C(=O)N[C@H](C(=O)N1CCC[C@H]1C(=O)N[C@H](C(=O)N[C@H](C(=O)N[C@@H](C)C(=O)N[C@@H](CCC(=O)O)C(=O)N[C@@H](CCCCN)C(=O)N[C@@H](CC(C)C)C(N)=O)[C@@H](C)CC)C(C)C)C(C)C)C(C)C)C(C)C [GLFGVLGSIAKHVLPHVVPVIAEKL] | – | – | – | – | – | – | – | – | – | – | MIC (Staphylococcus aureus): 4.63 µM (≈ 12 µg/mL); MIC (Listeria innocua): 19.3 µM (≈ 50 µg/mL); MIC [21]: 9.64 µM (≈ 25 µg/mL); MIC (Pasteurella multocida): 19.3 µM (≈ 50 µg/mL); MIC (Escherichia coli): > 38.5 µM; MIC (Leuconostoc lactis): 4.63 µM (≈ 12 µg/mL); MIC [22]: ≥ 35.4 µM; MIC (Micrococcus luteus): 19.3 µM (≈ 50 µg/mL); MIC (Bacillus cereus): ≥ 38.5 µM; MIC (Streptococcus uberis): 19.3 µM (≈ 50 µg/mL)
